# US20240109903A1, “SUBSTITUTED HETEROCYCLES FOR TREATING CANCER” (Northwestern University, priority 2022, published 2024)
# Read-outs that look alike come from different tables or passages of the source.
# Columns and labels:
# Format in all cases: cell-based
# [1] = tested on: MDA-MB-468; assay: NCI 60 five-dose screen MDA-MB-468; details: Homo sapiens; for CC50: read-out: LC50 (the source's name) (converted)
# [2] = tested on: CCRF-CEM; assay: NCI 60 five-dose screen CCRF-CEM; details: Homo sapiens; for CC50: read-out: LC50 (the source's name)
# [3] = tested on: MDA-MB-435; assay: NCI 60 five-dose screen MDA-MB-435; details: Homo sapiens; for CC50: read-out: LC50 (the source's name) (converted)
# [4] = tested on: NCI-H460; assay: NCI 60 five-dose screen NCI-H460; details: Homo sapiens; for CC50: read-out: LC50 (the source's name) (converted)
# [5] = tested on: ACHN; assay: NCI 60 five-dose screen ACHN; details: Homo sapiens; for CC50: read-out: LC50 (the source's name) (converted)
# [6] = tested on: DU-145; assay: NCI 60 five-dose screen DU-145; details: Homo sapiens; for CC50: read-out: LC50 (the source's name) (converted)
# [7] = tested on: PC-3; assay: NCI 60 five-dose screen PC-3; details: Homo sapiens; for CC50: read-out: LC50 (the source's name) (converted)
# [8] = tested on: NCI-H226; assay: NCI 60 five-dose screen NCI-H226; details: Homo sapiens; for CC50: read-out: LC50 (the source's name) (converted)
# [9] = tested on: SW-620; assay: NCI 60 five-dose screen SW-620; details: Homo sapiens; for CC50: read-out: LC50 (the source's name) (converted)
# [10] = tested on: HOP-62; assay: NCI 60 five-dose screen HOP-62; details: Homo sapiens; for CC50: read-out: LC50 (the source's name) (converted)
# [11] = tested on: NCI/ADR-RES; assay: NCI 60 five-dose screen NCI/ADR-RES; details: Homo sapiens; for CC50: read-out: LC50 (the source's name) (converted)
# [12] = tested on: BT-549; assay: NCI 60 five-dose screen BT-549; details: Homo sapiens; for CC50: read-out: LC50 (the source's name) (converted)
# [13] = tested on: RPMI-8226; assay: NCI 60 five-dose screen RPMI-8226; details: Homo sapiens; for CC50: read-out: LC50 (the source's name)
# [14] = tested on: NCI-H23; assay: NCI 60 five-dose screen NCI-H23; details: Homo sapiens; for CC50: read-out: LC50 (the source's name) (converted)
# [15] = tested on: HS 578T; assay: NCI 60 five-dose screen HS 578T; details: Homo sapiens; for CC50: read-out: LC50 (the source's name)
# [16] = tested on: SK-MEL-5; assay: NCI 60 five-dose screen SK-MEL-5; details: Homo sapiens; for CC50: read-out: LC50 (the source's name) (converted)
# [17] = tested on: A498; assay: NCI 60 five-dose screen A498; details: Homo sapiens; for CC50: read-out: LC50 (the source's name) (converted)
# [18] = tested on: OVCAR-5; assay: NCI 60 five-dose screen OVCAR-5; details: Homo sapiens; for CC50: read-out: LC50 (the source's name) (converted)
# [19] = tested on: NCI-H522; assay: NCI 60 five-dose screen NCI-H522; details: Homo sapiens
# [20] = tested on: U251; assay: NCI 60 five-dose screen U251; details: Homo sapiens
# [21] = tested on: MV-4-11 acute myeloid leukemia cells; assay: CellTiter-Glo 2.0 cell viability, MV-4-11; details: Homo sapiens
# Outline: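 MV4-11 cells plated at 3,000 cells/well on pre-dispensed compounds and incubated 3 days at 37 °C, 5% CO2. Viability read as ATP-dependent luminescence with CellTiter-Glo 2.0 after 20 min at ambient temperature, followed by regression analysis.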
# [22] = tested on: OVCAR-3; assay: NCI 60 five-dose screen OVCAR-3; details: Homo sapiens; for CC50: read-out: LC50 (the source's name) (converted)
# [23] = tested on: UACC-257; assay: NCI 60 five-dose screen UACC-257; details: Homo sapiens; for CC50: read-out: LC50 (the source's name) (converted)
# [24] = tested on: UACC-62; assay: NCI 60 five-dose screen UACC-62; details: Homo sapiens; for CC50: read-out: LC50 (the source's name) (converted)
# [25] = tested on: SK-MEL-28; assay: NCI 60 five-dose screen SK-MEL-28; details: Homo sapiens; for CC50: read-out: LC50 (the source's name) (converted)
# [26] = MV4-11, 72 h, MV-4-11 cells, 3 days, CellTiter-Glo 2.0, read-out: IC50 (uM) [Cell Type: MV-4-11]
# [27] = MV4-11, bound stated in text, read-out: IC50 against MV-4-11 acute myeloid leukemia cells
structure (smiles),measurement,setting,value
COc1cc(Cn2c(C(F)(F)F)cc3c(Cl)ncnc32)ccn1 [NUCC-0226694],GI50,[1],1.78 µM
same,IC50,[1],3.98 µM
same,IC (TGI),[1],3.8 µM
same,CC50,[1],7.94 µM
same,GI50,[2],3.16 µM
same,IC50,[2],5.37 µM
same,IC (TGI),[2],18.6 µM
same,CC50,[2],≥ 100 µM
same,GI50,[3],3.24 µM
same,IC50,[3],4.79 µM
same,IC (TGI),[3],14.5 µM
same,CC50,[3],50.1 µM
same,GI50,[4],2.69 µM
same,IC50,[4],3.31 µM
same,IC (TGI),[4],8.13 µM
same,CC50,[4],34.7 µM
same,GI50,[5],14.5 µM
same,IC50,[5],25.1 µM
same,IC (TGI),[5],28.8 µM
same,CC50,[5],57.5 µM
same,GI50,[6],1.78 µM
same,IC50,[6],3.09 µM
same,IC (TGI),[6],3.24 µM
same,CC50,[6],5.89 µM
same,GI50,[7],5.5 µM
same,IC50,[7],9.55 µM
same,IC (TGI),[7],20.9 µM
same,CC50,[7],58.9 µM
same,GI50,[8],15.5 µM
same,IC50,[8],33.1 µM
same,IC (TGI),[8],32.4 µM
same,CC50,[8],67.6 µM
same,GI50,[9],3.89 µM
same,IC50,[9],4.9 µM
same,IC (TGI),[9],16.6 µM
same,CC50,[9],49 µM
same,GI50,[10],14.5 µM
same,IC50,[10],27.5 µM
same,IC (TGI),[10],29.5 µM
same,CC50,[10],61.7 µM
same,GI50,[11],15.1 µM
same,IC50,[11],27.5 µM
same,IC (TGI),[11],33.9 µM
same,CC50,[11],74.1 µM
same,GI50,[12],1.62 µM
same,IC50,[12],3.24 µM
same,IC (TGI),[12],3.16 µM
same,CC50,[12],6.03 µM
same,GI50,[13],15.5 µM
same,IC50,[13],26.3 µM
same,IC (TGI),[13],79.4 µM
same,CC50,[13],≥ 100 µM
same,GI50,[14],2.19 µM
same,IC50,[14],3.98 µM
same,IC (TGI),[14],4.9 µM
same,CC50,[14],13.5 µM
same,GI50,[15],3.16 µM
same,IC50,[15],24.5 µM
same,IC (TGI),[15],16.6 µM
same,CC50,[15],≥ 100 µM
same,GI50,[16],3.89 µM
same,IC50,[16],6.92 µM
same,IC (TGI),[16],14.1 µM
same,CC50,[16],38 µM
same,GI50,[17],15.8 µM
same,IC50,[17],33.1 µM
same,IC (TGI),[17],30.9 µM
same,CC50,[17],58.9 µM
same,GI50,[18],15.8 µM
same,IC50,[18],29.5 µM
same,IC (TGI),[18],32.4 µM
same,CC50,[18],66.1 µM
same,GI50,[19],3.31 µM
same,IC50,[19],11 µM
same,IC (TGI),[19],15.1 µM
same,CC50,[19]; read-out: LC50 (the source's name) (converted),50.1 µM
same,GI50,[20]; U-251,15.1 µM
same,IC50,[20]; U-251,26.9 µM
same,IC (TGI),[20]; U-251,28.8 µM
same,CC50,"[20]; U-251, read-out: LC50 (the source's name) (converted)",56.2 µM
same,IC50,[21]; [26],0.999 µM
same,IC50,[21]; [27],< 2 µM
same,GI50,[22],2.34 µM
same,IC50,[22],4.07 µM
same,IC (TGI),[22],7.08 µM
same,CC50,[22],30.9 µM
same,GI50,[23],8.51 µM
same,IC50,[23],19.5 µM
same,IC (TGI),[23],21.9 µM
same,CC50,[23],49 µM
same,GI50,[24],8.13 µM
same,IC50,[24],15.8 µM
same,IC (TGI),[24],20.4 µM
same,CC50,[24],45.7 µM
same,GI50,[25],4.57 µM
same,IC50,[25],10 µM
same,IC (TGI),[25],16.2 µM
same,CC50,[25],40.7 µM
FC(F)(F)c1cc2c(Cl)ncnc2n1CCN1CCCCC1 [NUCC-0226679],GI50,[1]; five-dose,3.02 µM
same,IC50,[1]; five-dose,18.2 µM
same,IC (TGI),[1]; five-dose,9.33 µM
same,CC50,[1]; five-dose,38.9 µM
same,GI50,[2]; five-dose,11 µM
same,IC50,[2]; five-dose,74.1 µM
same,IC (TGI),[2]; five-dose,100 µM
same,CC50,[2]; five-dose,≥ 100 µM
same,GI50,[3]; five-dose,13.2 µM
same,IC50,[3]; five-dose,21.9 µM
same,IC (TGI),[3]; five-dose,30.2 µM
same,CC50,[3]; five-dose,67.6 µM
same,GI50,[4]; five-dose,18.2 µM
same,IC50,[4]; five-dose,26.3 µM
same,IC (TGI),[4]; five-dose,50.1 µM
same,CC50,[4]; five-dose,≥ 100 µM
same,GI50,[5]; five-dose,6.46 µM
same,IC50,[5]; five-dose,17 µM
same,IC (TGI),[5]; five-dose,100 µM
same,CC50,[5]; five-dose,≥ 100 µM
same,GI50,[6]; five-dose,30.2 µM
same,IC50,[6]; five-dose,50.1 µM
same,IC (TGI),[6]; five-dose,100 µM
same,CC50,[6]; five-dose,≥ 100 µM
same,GI50,[7]; five-dose,15.1 µM
same,IC50,[7]; five-dose,25.7 µM
same,IC (TGI),[7]; five-dose,47.9 µM
same,CC50,[7]; five-dose,≥ 100 µM
same,GI50,[8]; five-dose,60.3 µM
same,IC50,[8]; five-dose,100 µM
same,IC (TGI),[8]; five-dose,100 µM
same,CC50,[8]; five-dose,≥ 100 µM
same,GI50,[9]; five-dose,11.2 µM
same,IC50,[9]; five-dose,15.8 µM
same,IC (TGI),[9]; five-dose,28.8 µM
same,CC50,[9]; five-dose,74.1 µM
same,GI50,[10]; five-dose,38 µM
same,IC50,[10]; five-dose,100 µM
same,IC (TGI),[10]; five-dose,100 µM
same,CC50,[10]; five-dose,≥ 100 µM
same,GI50,[11]; five-dose,24 µM
same,IC50,[11]; five-dose,42.7 µM
same,IC (TGI),[11]; five-dose,64.6 µM
same,CC50,[11]; five-dose,≥ 100 µM
same,GI50,[12]; five-dose,15.1 µM
same,IC50,[12]; five-dose,30.2 µM
same,IC (TGI),[12]; five-dose,29.5 µM
same,CC50,[12]; five-dose,58.9 µM
same,GI50,[13]; five-dose,31.6 µM
same,IC50,[13]; five-dose,45.7 µM
same,IC (TGI),[13]; five-dose,100 µM
same,CC50,[13]; five-dose,≥ 100 µM
same,GI50,[14]; five-dose,13.8 µM
same,IC50,[14]; five-dose,28.2 µM
same,IC (TGI),[14]; five-dose,38.9 µM
same,CC50,[14]; five-dose,≥ 100 µM
same,GI50,[15]; five-dose,16.6 µM
same,IC50,[15]; five-dose,100 µM
same,IC (TGI),[15]; five-dose,60.3 µM
same,CC50,[15]; five-dose,≥ 100 µM
same,GI50,[16]; five-dose,14.8 µM
same,IC50,[16]; five-dose,26.3 µM
same,IC (TGI),[16]; five-dose,30.9 µM
same,CC50,[16]; five-dose,64.6 µM
same,GI50,[17]; five-dose,100 µM
same,IC50,[17]; five-dose,100 µM
same,IC (TGI),[17]; five-dose,100 µM
same,CC50,[17]; five-dose,≥ 100 µM
same,GI50,[18]; five-dose,100 µM
same,IC50,[18]; five-dose,100 µM
same,IC (TGI),[18]; five-dose,100 µM
same,CC50,[18]; five-dose,≥ 100 µM
same,GI50,[19]; five-dose,1.7 µM
same,IC50,[19]; five-dose,3.24 µM
same,IC (TGI),[19]; five-dose,3.47 µM
same,GI50,"[20]; U-251, five-dose",14.1 µM
same,IC50,"[20]; U-251, five-dose",22.9 µM
same,IC (TGI),"[20]; U-251, five-dose",34.7 µM
same,CC50,"[20]; U-251, five-dose, read-out: LC50 (the source's name) (converted)",87.1 µM
same,IC50,[21]; [26],0.675 µM
same,IC50,[21]; [27],< 2 µM
same,GI50,[22]; five-dose,17.8 µM
same,IC50,[22]; five-dose,33.1 µM
same,IC (TGI),[22]; five-dose,35.5 µM
same,CC50,[22]; five-dose,72.4 µM
same,GI50,[23]; five-dose,11.7 µM
same,IC50,[23]; five-dose,25.1 µM
same,IC (TGI),[23]; five-dose,30.2 µM
same,CC50,[23]; five-dose,77.6 µM
same,GI50,[24]; five-dose,12 µM
same,IC50,[24]; five-dose,22.4 µM
same,IC (TGI),[24]; five-dose,30.2 µM
same,CC50,[24]; five-dose,75.9 µM
same,GI50,[25]; five-dose,15.8 µM
same,IC50,[25]; five-dose,30.2 µM
same,IC (TGI),[25]; five-dose,38 µM
same,CC50,[25]; five-dose,89.1 µM
